Source: US9273341B2, “Methods for treatment of bacterial infections” (THE JOHNS HOPKINS UNVIERSITY, priority 2010, dated 2016)
In brackets after ≈: the same amount, converted by molar mass.

What was measured:
[1] = tested on: wild-type M. tuberculosis; assay: microbe, parasite or virus in culture; format: cell-based; settings: Mycobacterium tuberculosis
[2] = tested on: wild-type M. tuberculosis; set-up: species or system Balb/C mice; settings: mouse, in vivo

Compound | MIC [1] | bacterial burden (lung CFU) under treatment [2]
N[C@@H]1CON=C1O [D-cycloserine] | 5 µg/mL (≈ 49 µM) | –
NNC(=O)c1ccncc1 [isoniazid] | 0.03 µg/mL (≈ 0.219 µM) | similarly effective
